“Also recorded” adds a separate entry of the source. Read-outs that look alike come from different tables or passages of the source.
Experiments:
Solubility = format: physicochemical
[1] = In vitro phototoxicity and photoclastogenicity; format: cell-based
[2] = Food effect open-label randomized crossover study; format: in vivo, human; settings: standard high-fat breakfast
Excerpt: The calcium content of this meal may have also contributed to this decrease in exposure.

pregnant rats (F0) = test: Pre- and post-natal developmental toxicity study; format: in vivo, rat
female rats = test: Early embryonic development study; format: in vivo, rat; settings: highest dose, 7 times human clinical exposure (AUC); maternally toxic
mice [3] = settings: mouse, in vivo
mice [4] = settings: mouse, in vivo; remark: listed apart in the source
UGT2B15 = UGT2B15 (Homo sapiens, UniProt P54855); test: In vitro UGT inhibition; format: in vitro ADME
Excerpt: (§1) Monitor patients closely for signs or symptoms of excessive exposure to these drugs when concomitantly administered with Promacta®.

UGT2B7 = UGT2B7 (Homo sapiens, UniProt P16662); test: In vitro UGT inhibition; format: in vitro ADME
Excerpt: as §1

UGT1A6 = UGT1A6 (Homo sapiens, UniProt P19224); test: In vitro UGT inhibition; format: in vitro ADME
Excerpt: as §1

UGT1A4 = UGT1A4 (Homo sapiens, UniProt P22310); test: In vitro UGT inhibition; format: in vitro ADME
Excerpt: as §1

UGT1A9 = UGT1A9 (Homo sapiens, UniProt O60656); test: In vitro UGT inhibition; format: in vitro ADME
Excerpt: as §1

UGT1A1 [5] = target: T1, UGT1A1 (Homo sapiens, UniProt P22309); test: In vitro UGT inhibition; format: in vitro ADME
Excerpt: as §1

UGT1A3 [6] = target: T2, UGT1A3 (Homo sapiens, UniProt P35503); test: In vitro UGT inhibition; format: in vitro ADME
Excerpt: as §1

p-glycoprotein (Pgp) = p-glycoprotein (Pgp) (Homo sapiens, UniProt P08183); test: Transporter substrate assessment; format: in vitro ADME
rabbits = test: Toxicology in rabbits; format: in vivo, rabbit; settings: 1.4 times human clinical exposure (AUC)
dogs [7] = test: Platelet production in animals; format: in vivo, dog
dogs [8] = settings: dog, in vivo
mice [9] = test: 2-year oral carcinogenicity study in mice; settings: 2-year study, lowest dose (25 mg/kg/day)
CYP2C9 = CYP2C9 (Homo sapiens, UniProt P11712); test: In vitro CYP inhibition (diclofenac probe); format: in vitro ADME; settings: diclofenac probe substrate
Excerpt: (§2) Probe substrates for CYP2C8 were not evaluated in this study.

rats [10] = settings: rat, in vivo
rats [11] = test: Fertility studies in rats; format: in vivo, rat
UGT1A3 [12] = target: T2, UGT1A3; test: In vitro glucuronidation; format: in vitro ADME
human plasma proteins = test: In vitro plasma protein binding; format: in vitro ADME
UGT1A1 [13] = target: T1, UGT1A1; test: In vitro glucuronidation; format: in vitro ADME
[14] = Pharmacokinetics by race and gender; format: in vivo, human
pregnant rats = settings: rat, in vivo
OATP1B1 [15] = target: T3, OATP1B1 (Homo sapiens, UniProt Q9Y6L6); test: Transporter substrate assessment; format: in vitro ADME
mice [16] = test: Platelet production in animals; format: in vivo, mouse
rats [17] = test: In vivo unscheduled DNA synthesis assay; settings: rat unscheduled DNA synthesis, 11 times human clinical exposure (Cmax)
CYP2C8 [18] = target: T4, CYP2C8 (Homo sapiens, UniProt P10632); test: In vitro oxidative metabolism; format: in vitro ADME
mouse lymphoma = test: In vitro mouse lymphoma assay; format: cell-based
rats [19] = settings: rat, in vivo; remark: listed apart in the source
pregnant rabbits = settings: oral 30, 80, or 150 mg/kg/day (0.1, 0.3, 0.6 times human clinical exposure, AUC)
bacterial = test: Bacterial mutation assay
mice [20] = test: In vivo cutaneous phototoxicity; set-up: species or system mouse; settings: up to 11 times human clinical exposure (AUC)
OATP1B1 [21] = target: T3, OATP1B1; test: In vitro OATP1B1 inhibition; format: in vitro ADME
CYP2C8 [22] = target: T4, CYP2C8; test: In vitro CYP inhibition (paclitaxel probe); format: in vitro ADME; settings: paclitaxel probe substrate
Excerpt: as §2

rats [23] = test: In vivo micronucleus assay; settings: rat micronucleus, 11 times human clinical exposure (Cmax)
rats [24] = test: Platelet production in animals; format: in vivo, rat
CYP1A2 = CYP1A2 (Homo sapiens, UniProt P05177); test: In vitro oxidative metabolism; format: in vitro ADME
[25] = Clinical pharmacokinetics: absorption, distribution, metabolism, elimination (incl. radiolabel study); format: in vivo, human; settings: for half-life: plasma, oral
Protocol: Based on urinary excretion and biotransformation products eliminated in feces, the oral absorption of drug-related material following administration of a single 75 mg solution dose was estimated to be at least 52%.
Metabolites due to glucuronidation and oxidation were also detected.

healthy adult subjects = test: QT/QTc double-blind placebo- and positive-controlled crossover trial; format: in vivo, human; settings: 400 mg, single oral dose
Protocol: The effects of Promacta® at doses up to 150 mg daily for 5 days (supratherapeutic doses) on the QT/QTc interval was evaluated in a double-blind, randomized, placebo- and positive-controlled (moxifloxacin 400 mg, single oral dose) crossover trial in healthy adult subjects.

T4 sequence (P10632 whole entry): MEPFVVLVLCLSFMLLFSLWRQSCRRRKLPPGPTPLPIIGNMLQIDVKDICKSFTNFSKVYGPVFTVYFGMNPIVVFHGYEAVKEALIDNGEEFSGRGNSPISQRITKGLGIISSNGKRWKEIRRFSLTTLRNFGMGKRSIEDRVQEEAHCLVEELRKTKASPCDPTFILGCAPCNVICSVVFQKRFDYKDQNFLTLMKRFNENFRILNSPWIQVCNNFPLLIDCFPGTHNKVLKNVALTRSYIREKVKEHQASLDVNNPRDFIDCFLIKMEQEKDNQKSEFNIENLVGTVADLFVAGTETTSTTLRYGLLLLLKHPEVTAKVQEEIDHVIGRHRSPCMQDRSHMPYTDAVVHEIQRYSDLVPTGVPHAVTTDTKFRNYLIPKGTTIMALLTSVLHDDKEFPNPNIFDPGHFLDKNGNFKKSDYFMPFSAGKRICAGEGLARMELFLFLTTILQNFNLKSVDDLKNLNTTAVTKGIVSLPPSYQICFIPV
Chain of CYP1A2 (P05177 whole entry): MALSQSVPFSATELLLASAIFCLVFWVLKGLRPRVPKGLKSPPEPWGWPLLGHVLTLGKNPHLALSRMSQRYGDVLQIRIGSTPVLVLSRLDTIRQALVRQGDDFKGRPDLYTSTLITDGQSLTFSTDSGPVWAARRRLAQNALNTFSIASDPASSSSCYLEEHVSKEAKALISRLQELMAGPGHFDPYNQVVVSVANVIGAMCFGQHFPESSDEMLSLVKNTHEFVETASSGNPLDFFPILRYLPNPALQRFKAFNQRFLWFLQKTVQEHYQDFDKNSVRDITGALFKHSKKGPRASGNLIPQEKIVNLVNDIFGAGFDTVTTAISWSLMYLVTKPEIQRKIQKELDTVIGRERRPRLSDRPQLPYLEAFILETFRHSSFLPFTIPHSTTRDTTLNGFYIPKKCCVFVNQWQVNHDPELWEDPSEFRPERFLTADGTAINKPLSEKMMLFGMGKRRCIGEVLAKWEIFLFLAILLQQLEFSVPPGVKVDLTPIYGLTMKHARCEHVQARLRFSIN
T1 sequence (P22309 26-533): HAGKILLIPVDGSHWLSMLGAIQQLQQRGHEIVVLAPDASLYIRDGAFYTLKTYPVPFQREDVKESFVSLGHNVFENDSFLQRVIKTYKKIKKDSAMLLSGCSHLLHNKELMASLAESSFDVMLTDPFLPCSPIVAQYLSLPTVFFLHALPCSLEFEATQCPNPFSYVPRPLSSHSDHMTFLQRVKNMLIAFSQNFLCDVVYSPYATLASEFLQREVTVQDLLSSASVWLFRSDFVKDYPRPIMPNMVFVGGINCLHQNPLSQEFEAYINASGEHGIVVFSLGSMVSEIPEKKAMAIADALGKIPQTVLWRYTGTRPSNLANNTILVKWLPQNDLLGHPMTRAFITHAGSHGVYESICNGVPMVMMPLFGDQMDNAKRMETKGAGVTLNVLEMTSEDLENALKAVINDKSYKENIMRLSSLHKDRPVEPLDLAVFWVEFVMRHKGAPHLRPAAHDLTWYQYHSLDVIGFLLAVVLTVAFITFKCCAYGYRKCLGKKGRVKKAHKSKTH
T3 sequence (Q9Y6L6 whole entry): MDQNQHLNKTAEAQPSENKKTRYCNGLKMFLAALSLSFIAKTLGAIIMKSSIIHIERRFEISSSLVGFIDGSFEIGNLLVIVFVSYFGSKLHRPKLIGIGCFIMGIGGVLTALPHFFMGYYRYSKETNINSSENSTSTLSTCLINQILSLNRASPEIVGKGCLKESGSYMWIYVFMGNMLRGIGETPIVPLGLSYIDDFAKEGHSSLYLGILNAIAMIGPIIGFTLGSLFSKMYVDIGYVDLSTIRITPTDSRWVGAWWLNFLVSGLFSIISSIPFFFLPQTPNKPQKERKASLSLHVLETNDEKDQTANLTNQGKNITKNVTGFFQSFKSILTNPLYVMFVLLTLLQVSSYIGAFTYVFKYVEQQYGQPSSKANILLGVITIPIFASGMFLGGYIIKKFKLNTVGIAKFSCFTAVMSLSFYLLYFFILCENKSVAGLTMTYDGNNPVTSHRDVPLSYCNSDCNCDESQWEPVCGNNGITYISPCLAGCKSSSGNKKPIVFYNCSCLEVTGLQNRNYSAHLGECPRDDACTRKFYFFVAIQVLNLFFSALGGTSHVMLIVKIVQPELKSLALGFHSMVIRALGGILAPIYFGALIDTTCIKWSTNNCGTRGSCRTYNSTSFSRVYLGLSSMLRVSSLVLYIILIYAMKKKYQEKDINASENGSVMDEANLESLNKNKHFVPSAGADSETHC
T2 sequence (P35503 29-534): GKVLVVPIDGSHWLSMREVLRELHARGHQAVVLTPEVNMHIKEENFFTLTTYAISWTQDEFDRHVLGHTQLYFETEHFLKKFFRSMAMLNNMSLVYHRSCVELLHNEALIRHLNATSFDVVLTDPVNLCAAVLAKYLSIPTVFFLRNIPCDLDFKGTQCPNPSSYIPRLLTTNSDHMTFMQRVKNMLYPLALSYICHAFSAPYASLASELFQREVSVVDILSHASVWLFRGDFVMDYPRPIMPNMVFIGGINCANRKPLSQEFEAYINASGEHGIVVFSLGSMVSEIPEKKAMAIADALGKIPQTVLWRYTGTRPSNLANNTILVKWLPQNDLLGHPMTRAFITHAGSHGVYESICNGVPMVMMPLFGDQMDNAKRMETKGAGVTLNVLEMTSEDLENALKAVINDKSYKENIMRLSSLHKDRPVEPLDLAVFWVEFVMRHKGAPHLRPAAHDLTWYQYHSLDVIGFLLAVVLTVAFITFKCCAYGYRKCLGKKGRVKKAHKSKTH
Chain of UGT1A9 (O60656 26-530): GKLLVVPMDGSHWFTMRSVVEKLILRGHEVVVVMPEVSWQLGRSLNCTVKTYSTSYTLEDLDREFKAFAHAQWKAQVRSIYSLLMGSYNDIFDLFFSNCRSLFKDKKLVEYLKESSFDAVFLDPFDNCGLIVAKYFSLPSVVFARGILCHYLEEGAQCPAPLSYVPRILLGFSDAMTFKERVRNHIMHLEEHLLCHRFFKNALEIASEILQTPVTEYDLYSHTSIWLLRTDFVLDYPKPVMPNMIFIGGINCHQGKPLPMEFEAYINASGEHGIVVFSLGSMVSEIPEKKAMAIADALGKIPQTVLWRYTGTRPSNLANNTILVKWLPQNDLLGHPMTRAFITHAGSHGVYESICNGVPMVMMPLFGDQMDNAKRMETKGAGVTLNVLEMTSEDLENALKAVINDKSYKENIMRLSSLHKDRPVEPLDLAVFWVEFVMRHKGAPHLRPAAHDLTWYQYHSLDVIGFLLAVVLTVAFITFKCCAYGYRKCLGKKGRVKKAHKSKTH
Chain of UGT1A4 (P22310 29-534): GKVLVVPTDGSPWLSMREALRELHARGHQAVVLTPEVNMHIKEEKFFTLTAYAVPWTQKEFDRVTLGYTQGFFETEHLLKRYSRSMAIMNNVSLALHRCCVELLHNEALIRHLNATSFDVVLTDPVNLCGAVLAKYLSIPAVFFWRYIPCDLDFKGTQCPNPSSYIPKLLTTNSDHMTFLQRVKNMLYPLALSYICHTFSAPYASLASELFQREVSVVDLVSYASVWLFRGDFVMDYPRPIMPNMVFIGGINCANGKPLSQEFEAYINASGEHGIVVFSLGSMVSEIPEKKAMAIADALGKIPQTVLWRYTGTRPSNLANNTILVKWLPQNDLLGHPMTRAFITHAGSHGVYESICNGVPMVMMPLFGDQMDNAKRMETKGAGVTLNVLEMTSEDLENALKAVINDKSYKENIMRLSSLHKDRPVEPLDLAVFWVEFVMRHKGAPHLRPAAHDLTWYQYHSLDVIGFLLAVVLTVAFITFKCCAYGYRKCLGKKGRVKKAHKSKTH
Chain of UGT2B15 (P54855 24-530): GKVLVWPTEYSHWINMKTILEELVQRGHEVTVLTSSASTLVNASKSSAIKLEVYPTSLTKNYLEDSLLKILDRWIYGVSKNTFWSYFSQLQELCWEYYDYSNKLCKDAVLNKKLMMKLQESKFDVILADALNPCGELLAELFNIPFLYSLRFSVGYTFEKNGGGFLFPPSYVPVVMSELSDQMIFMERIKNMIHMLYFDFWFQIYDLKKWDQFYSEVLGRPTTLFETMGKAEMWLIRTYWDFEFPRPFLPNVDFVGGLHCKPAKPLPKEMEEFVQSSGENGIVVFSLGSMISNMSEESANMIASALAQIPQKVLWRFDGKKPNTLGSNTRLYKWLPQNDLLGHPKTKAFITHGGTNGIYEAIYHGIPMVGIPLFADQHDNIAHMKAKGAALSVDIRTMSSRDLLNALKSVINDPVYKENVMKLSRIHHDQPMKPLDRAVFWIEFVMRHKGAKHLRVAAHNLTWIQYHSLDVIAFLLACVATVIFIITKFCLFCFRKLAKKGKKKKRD
Chain of UGT1A6 (P19224 27-532): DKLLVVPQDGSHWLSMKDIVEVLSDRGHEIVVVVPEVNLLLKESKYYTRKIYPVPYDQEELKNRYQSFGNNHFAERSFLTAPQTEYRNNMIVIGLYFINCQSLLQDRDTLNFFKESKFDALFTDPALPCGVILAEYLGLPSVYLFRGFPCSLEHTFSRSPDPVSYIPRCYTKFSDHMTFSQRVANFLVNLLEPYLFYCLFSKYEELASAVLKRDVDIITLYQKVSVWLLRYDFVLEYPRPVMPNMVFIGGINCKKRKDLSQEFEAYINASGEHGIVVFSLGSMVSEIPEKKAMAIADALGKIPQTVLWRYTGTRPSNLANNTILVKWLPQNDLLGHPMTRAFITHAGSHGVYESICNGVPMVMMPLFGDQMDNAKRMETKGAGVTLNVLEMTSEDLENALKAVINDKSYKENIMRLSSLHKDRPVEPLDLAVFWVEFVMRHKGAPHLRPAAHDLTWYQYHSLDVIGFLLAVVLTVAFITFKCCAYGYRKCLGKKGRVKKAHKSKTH

With CC1=NN(c2ccc(C)c(C)c2)C(=O)/C1=N\Nc1cccc(-c2cccc(C(=O)O)c2)c1O.NCCO.NCCO [Eltrombopag olamine, 3′-{(2Z)-2-[1-(3,4-dimethylphenyl)-3-methyl-5-oxo-1,5-dihydro-4H-pyrazol-4-ylidene]hydrazino}-2′-hydroxy-3-biphenylcarboxylic acid-2-aminoethanol (1:2)] the solubility in water (Solubility) was “sparingly soluble” and the “solubility in aqueous buffer” value (Solubility; pH range of 1 to 7.4) was “practically insoluble”.

In the case of CC1=NN(c2ccc(C)c(C)c2)C(=O)/C1=N\Nc1cccc(-c2cccc(C(=O)O)c2)c1O [eltrombopag, 3′-[(2Z)-[1-(3,4-dimethylphenyl)-1,5-dihydro-3-methyl-5-oxo-4H-pyrazol-4-ylidene]hydrazino]-2′-hydroxy-[1,1′-biphenyl]-3-carboxylic acid], the photoclastogenicity in vitro [1] is reported as “photoclastogenic”, the phototoxicity in vitro [1] is reported as “phototoxic” and the “drug concentrations at which photoclastogenic effects were observed” value ([1]; cytotoxic concentrations, UV 30 MED) is reported as no less than 15000 ng/mL. The “photoclastogenicity in vitro at lower UV exposure” value ([1]; up to 58.4 mcg/mL, UV 15 MED) was “No evidence of in vitro photoclastogenicity”, the “decrease of Cmax with food” value [2] was 65% and the “decrease of plasma AUC0-∞ with food” value [2] was “approximately 59%”. The “plasma concentrations in pups versus dose” value (pregnant rats (F0); 0.8 and 2 times human clinical exposure (AUC), drug given to F0 dams) was “increased with dose”, the “presence in plasma of offspring (F1)” value (pregnant rats (F0); after administration to F0 dams) was “detected” and the “effects on maternal reproductive function or development of offspring (F1)” value (pregnant rats (F0); doses up to 2 times human clinical exposure (AUC)) was “no adverse effects”. For the same compound, the “early embryonic development findings” value (female rats) was “Increased pre- and post-implantation loss and reduced fetal weight”, the liver finding (mice [3]) was “hepatocellular hypertrophy” and the “renal tubular effects after 13 weeks” value (mice [3]) was “No similar effects were observed”. The renal tubular toxicity (mice [3]) was “Renal tubular toxicity was observed”, the “duration of dosing after which cataracts were observed” value (“duration of dosing” for short) (mice [3]; 6 weeks) was 6 weeks and the “duration of dosing” value (mice [3]; 13 weeks) was 13 weeks. For the same compound, the photo-ocular toxicity (mice [4]) was “no evidence”, the “inhibition of UGT2B15” value (UGT2B15) was “inhibitor” and the “inhibition of UGT2B7” value (UGT2B7) was “inhibitor”. For the same compound, the “inhibition of UGT1A6” value (UGT1A6) was “inhibitor”, the “inhibition of UGT1A4” value (UGT1A4) was “inhibitor” and the “inhibition of UGT1A9” value (UGT1A9) was “inhibitor”. The “inhibition of UGT1A1” value (UGT1A1 [5]) was “inhibitor”, the “inhibition of UGT1A3” value (UGT1A3 [6]) was “inhibitor” and the “substrate for p-glycoprotein (Pgp)” value (p-glycoprotein (Pgp)) was “not a substrate”. The liver finding (rabbits) was “hepatocellular hypertrophy”, the platelet production (dogs [7]) was “does not stimulate platelet production” and the cataracts (dogs [8]) was “Cataracts were not observed”. For the same compound, the liver finding (dogs [8]) was “hepatocellular hypertrophy”, the renal tubular toxicity (dogs [8]) was “Renal tubular toxicity was not observed” and the “exposure at the lowest dose relative to human clinical exposure based on AUC” value (mice [9]) was 1.4 times. The “inhibition of CYP2C9” value (CYP2C9) was “inhibitor”, the liver finding (rats [10]) was “hepatocellular hypertrophy” and the “liver finding (vacuolation)” value (rats [10]) was “hepatocellular vacuolation”. For the same compound, the “duration of dosing” value (rats [10]; 28 weeks) was 28 weeks, the “duration of dosing” value (rats [10]; 39 weeks) was 39 weeks and the female fertility (rats [11]; doses up to 20 mg/kg/day (2 times human clinical exposure, AUC)) was “did not affect female fertility”. The male fertility (rats [11]; doses up to 40 mg/kg/day, highest dose tested (5 times human clinical exposure, AUC)) was “did not affect male fertility”, the “role of UGT1A3 in glucuronidation” value (UGT1A3 [12]) was “responsible” and the “plasma protein binding” value (human plasma proteins) was “highly bound to plasma proteins”. The “bound to human plasma proteins” value (human plasma proteins; in vitro) was greater than 99%, the “role of UGT1A1 in glucuronidation” value (UGT1A1 [13]) was “responsible” and the “plasma exposure higher than in non-Asian subjects” value ([14]; East Asian subjects with ITP) was “approximately 70%”. The systemic exposure higher ([14]; healthy African-American subjects) was “approximately 40%”, the “apparent clearance greater in males than females” value ([14]; population PK model, adjusted for body weight) was 27% and the embryofetal findings (pregnant rats) was “Decreased fetal weights and a slight increase in the presence of cervical ribs”. For the same compound, the major structural malformations (pregnant rats) was “no evidence of major structural malformations”, the “substrate for OATP1B1” value (OATP1B1 [15]) was “not a substrate” and the platelet production (mice [16]) was “does not stimulate platelet production”. For the same compound, the mutagenicity/clastogenicity (rats [17]) was “not mutagenic or clastogenic”, the “role of CYP2C8 in oxidative metabolism” value (CYP2C8 [18]) was “responsible; also recorded: involved” and the “mouse lymphoma assay result” value (mouse lymphoma; in vitro) was “marginally positive”. The “increase in mutation frequency” value (mouse lymphoma; in vitro mouse lymphoma assay) was less than 3 fold, the photo-ocular toxicity (rats [19]) was “no evidence” and the “fetotoxicity, embryolethality, or teratogenicity” value (pregnant rabbits) was “no evidence of fetotoxicity, embryolethality, or teratogenicity”. For the same compound, the mutagenicity/clastogenicity (bacterial) was “not mutagenic or clastogenic”, the “in vivo cutaneous phototoxicity” value (mice [20]) was “no evidence” and the “inhibition of OATP1B1” value (OATP1B1 [21]) was “inhibitor”. The “inhibition of CYP2C8” value (CYP2C8 [22]) was “inhibitor”, the mutagenicity/clastogenicity (rats [23]) was “not mutagenic or clastogenic” and the platelet production (rats [24]) was “does not stimulate platelet production”. For the same compound, the “role of CYP1A2 in oxidative metabolism” value (CYP1A2) was “responsible; also recorded: involved”, the “dose found in the urine” value ([25]; % of dose) was 31% and the excretion via feces ([25]; % of dose) was 59%. For the same compound, the “unchanged eltrombopag in feces” value ([25]; % of dose) was “approximately 20%”, the extent of metabolism ([25]; cleavage, oxidation, conjugation) was “extensively metabolized” and the “share of plasma radiocarbon AUC0-∞” value ([25]; human radiolabel study) was “approximately 64%”. The renal excretion ([25]; human, in vivo) was “not significantly renally excreted”, the “unchanged eltrombopag in urine” value ([25]; human, in vivo) was “not detectable” and the “time of peak concentration after oral administration” value ([25]; human, in vivo, po) was 2 to 6 h. The half-life ([25]; human, ITP patients) was 26 to 35 h, the half-life ([25]; human, healthy subjects) was 21 to 32 h and the “concentration in blood cells as % of plasma concentrations” value ([25]; radiolabel study) was 50-79%. The “oral absorption of drug-related material” value ([25]; single 75 mg solution dose, from urinary excretion and fecal biotransformation products) was “at least 52%”.

With COc1c(N2C[C@@H]3CCCN[C@@H]3C2)c(F)cc2c(=O)c(C(=O)O)cn(C3CC3)c12 [moxifloxacin] the “QTc effect of positive control” value (healthy adult subjects) was “significant QTc prolongation”.

From patent publication US20140142155A1, “METHOD OF TREATING THROMBOCYTOPENIA” (GlaxoSmithKline LLC, priority 2008, published 2014)
